The nature of series [1]: Heat stability by differential scanning calorimetry (DSC). As to conditions: heat stability data by DSC. The series is classed as physicochemical. The protocol:
Specifically, 2,7-naphthalenedithiol (2,7-form) described in the Patent Document 1 has a melting point of 186 to 188° C., 2,6-naphthalenedithiol (2,6-form) has a melting point of 196 to 197° C., and 1,5-naphthalenedithiol (1,5-form) described in the Nonpatent Document 1 has a melting point of 120 to 121° C. Thus, these positional isomers of naphthalenedithiol each have a high melting point and are expected to show boiling point elevation due to hydrogen bonds of mercapto groups. […] Thus, it is technically difficult to adopt purification of these naphthalenedithiols by distillation at a relatively high temperature. For example, when 1,5-form, 2,6-form, and 2,7-form are tried to be distilled under vacuum, an outflow (or exit) line is to be maintained at a high temperature in order to prevent crystallization. However, such a high temperature of the outflow line causes not only easy re-evaporation of the naphthalenedithiols in the outflow line but also crystallization and clogging of the naphthalenedithiols in a subsequent line, thus making it impossible to operate the distillation.

A short description of series [2]: Dissolubility (maximum dissolved concentration in organic solvents, by HPLC). The series is classed as physicochemical. As to conditions: 25° C.; for Dissolubility DMF: N,N-dimethylformamide; for Dissolubility PGMEA: propylene glycol monomethyl ether acetate; for Dissolubility THF: tetrahydrofuran. The method, then: In each of predetermined solvents described in the Table below, a sample was mixed at a temperature of 25° C., and the dissolubility of the sample was evaluated. In more detail, the sample was added to a predetermined amount of a solvent until the sample could not be dissolved, and the sample content of the liquid phase (the solvent phase) of the resulting mixture was analyzed using an HPLC (“SPD-20A” manufactured by SHIMADZU CORPORATION), and thus the concentration (the maximum dissolved concentration) of the sample in the liquid phase (the solvent phase) was determined as a solubility.

Consider `Sc1cccc2c(S)cccc12` [Comparative Example 5, 1,5-naphthalenedithiol], for which the “temperature at which weight decreases by 5% or more” value in series [1] was 176 °C. Further, in series [2], the “Dissolubility DMF” value was determined as 34.4 % by mass, the “Dissolubility Ethyl acetate” value is given as 7.05 % by mass, the “Dissolubility Methanol” value amounted to 1.08 % by mass and the “Dissolubility PGMEA” value was 7.44 % by mass. In series [2], the “Dissolubility THF” value is given as 29.0 % by mass and the “Dissolubility Toluene” value turned out to be 7.26 % by mass.

For `Sc1ccc2cc(S)ccc2c1` [Comparative Example 6, 2,6-naphthalenedithiol], the “temperature at which weight decreases by 5% or more” value in series [1] amounted to 196 °C. Also, in series [2], the “Dissolubility DMF” value amounted to 3.54 % by mass, the “Dissolubility Ethyl acetate” value turned out to be 0.65 % by mass, the “Dissolubility Methanol” value is reported as 0.11 % by mass and the “Dissolubility PGMEA” value amounted to 0.73 % by mass. Also, in series [2], the “Dissolubility THF” value worked out at 4.03 % by mass and the “Dissolubility Toluene” value is given as 0.64 % by mass.

Regarding `Sc1ccc2ccc(S)cc2c1` [Comparative Example 7, 2,7-naphthalenedithiol], the “temperature at which weight decreases by 5% or more” value in series [1] turned out to be 188 °C. Besides, in series [2], the “Dissolubility DMF” value turned out to be 7.75 % by mass, the “Dissolubility Ethyl acetate” value turned out to be 0.90 % by mass, the “Dissolubility Methanol” value is 0.16 % by mass and the “Dissolubility PGMEA” value was 1.05 % by mass. Besides, in series [2], the “Dissolubility THF” value is 5.24 % by mass and the “Dissolubility Toluene” value came out at 0.76 % by mass.

Turning to `Sc1ccc2c(S)cccc2c1` [Example 1, 1,6-naphthalenedithiol], the “Dissolubility Methanol” value in series [2] turned out to be 19.3 % by mass.
